Experiments:
[1] = biological target: T1, IRAK4 (Homo sapiens, UniProt Q9NWZ3); assay: hPBMC IRAK4 degradation flow assay (monocytes); type: cell-based; set-up: endogenous in cells; host or cells: human PBMCs (monocytes, CD14 positive gate); details: CD14 positive monocytes, 20 h, read-out: hPBMC monocyte DC50 at 20 h
T1 sequence (Q9NWZ3 1-460): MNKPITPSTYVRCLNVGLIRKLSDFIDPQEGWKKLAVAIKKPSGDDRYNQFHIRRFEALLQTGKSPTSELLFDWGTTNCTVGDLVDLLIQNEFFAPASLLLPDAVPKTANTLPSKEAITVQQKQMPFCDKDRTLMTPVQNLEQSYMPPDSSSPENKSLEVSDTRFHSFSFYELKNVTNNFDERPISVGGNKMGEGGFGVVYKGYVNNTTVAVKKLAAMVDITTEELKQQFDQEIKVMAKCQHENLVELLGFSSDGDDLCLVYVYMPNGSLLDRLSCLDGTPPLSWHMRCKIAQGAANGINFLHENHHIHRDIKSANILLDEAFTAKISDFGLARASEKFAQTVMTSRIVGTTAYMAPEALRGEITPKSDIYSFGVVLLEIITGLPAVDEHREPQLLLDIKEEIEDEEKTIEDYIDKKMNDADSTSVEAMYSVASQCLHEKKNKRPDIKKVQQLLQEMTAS
Description: In the hPBMC IRAK4 degradation flow assay, frozen PBMCs were thawed into RPMI with 10% FBS and allowed to recover. On the same day as thawed, PBMCs were plated in 96 well plate, 90 μL per well. Compound plates were prepared and a 10 point, 5-fold dilution was performed with a final DMSO concentration of 0.1%. Compound 10 μL per well was added, sealed and incubated at 37° C., 5% CO2 for 20 hours (for 4 hour treatment, compounds were prepared and added the following day). Following the treatment incubation period (day 1), 1.6% PFA was added to PBMC plate and placed on plate shaker for 30 seconds and incubated for 10 mins at room temperature. Cells were spun down and washed two times with PBS/0.5% BSA, aspirated to pellet and placed into −80° C. freezer until further processing for flow. On the flow run day, PBMC plates were thawed and samples were transferred to PCR plates. The pre-perm staining cocktail (CD3 Ax488/CD8 BUV805/CD14 BUV395/CD16/56 BV711/CD19 BV785) was added to samples and incubated for 30 minutes at room temperature. Samples were washed two times and permeabilized with methanol for 10 minutes at 4° C. Samples were washed two times and the post-perm staining cocktail (CD4 PE/IRAK4 Ax647 BD #560315) was added and incubated for 30 minutes at room temperature. Samples were washed two times with PBS/BSA and run on a BD LSRFortessa. Mononuclear cells are gated by SSCH/FSCH and single cells. Monocytes are then gated through CD14 positive gate and lymphocytes are gated through CD14 negative gate. To determine absolute DC50 and max degradation values, MFI values were normalized to DMSO max and 20 hour 10 µM min control. Twenty hour dose curves were calculated using a 4 parameter logistic regression curve fit, no constraints (Top doses were removed if hook effects were observed and the bottom was constrained to 0).
(§1) IRAK4 MSD degradation in OCI-LY10 results at 4 and 24 hrs and hPBMC at 20 hrs for compounds of the invention are presented in Table 3. The letter codes for IRAK4 DC50 include: A (<0.1 μM), B (0.1-1.0 μM), C(>1.0-10.0 μM), D (>10.0 μM or not determined).

[2] = biological target: T1, IRAK4; assay: IRAK4 degradation in OCI-LY10 (MSD, Meso Scale Discovery); type: cell-based; set-up: endogenous in cells; host or cells: OCI-LY10; details: OCI-LY10 cells, 24 h
Description: Degradation of IRAK4 in OCI-LY10 was quantitatively measured using Meso Scale Discovery technology. OCI-LY10 cells were seeded in 96-well plates (Corning 3799) with a density of 300,000 cells per well in 100 μL fresh media. Compounds were then added to the assay plates with a final top concentration of 1 to 10 μM in a 1:3 dilution series with total of 8 doses. The assay plates were then incubated for 4 to 24 hours at 37° C. under 5% CO2. The assay plates were then centrifuged for 5 minutes and the cell pellets were treated with 100 μL/well RIPA lysis buffer (Boston BioProducts BP-115D) with proteinase inhibitors. To prepare MSD assay plates (Meso Scale Discovery Catalog number L15XA-3), the plates were coated with 2 ug/mL capture antibody (mouse Anti-IRAK4 antibody [2H9], ab119942) in PBS, at 40 μL/well. The plates were then incubated overnight at […], washed 3 times with 150 μL/well TBST buffer (Cell Signaling Technology, Catalog number 9997S) and blocked with 150 μL/well blocking buffer (Meso Scale Discovery Catalog number R^93BA-4). Cell lysates were then added to MSD assay plates and the plates were incubated at room temperature for 1 hour. The plates were then washed 3 times with 150 μL/well TBST buffer and 25 μL/well primary detection antibody (rabbit Anti-IRAK4 antibody [Y279], from Abcam. Catalog number ab32511, 1 μg/mL). The assay plates were then incubated at room temperature for 1 hour, washed 3 times with 150 μL/well TBST buffer and 25 μL/well secondary detection antibody, SULFO-TAG anti-rabbit antibody were added (anti-rabbit antibody from Meso Scale Discovery, Catalog number R^32AB-1, 1 μg/mL). The assay plates were then incubated at room temperature for 1 hour, washed 3 times with 150 μL/well TBST buffer, and 150 μL/well MSD reading buffer (Meso Scale Discovery catalog number R^92TC-2) was added. The plates were then analyzed by a MSD reader (Meso Scale Discovery, Model Quick Plex SQ 120). The data was then analyzed by software Prism 7.0 from GraphPad and the dose-depended IRAK4 degradation were fit using a three-parameter logistic equation to calculate DC50.
as §1

CCOC(=O)Cn1cc(NC(=O)c2cccc3c2ccn3CCCNC[C@H]2CC[C@H](n3cc4cc(NC(=O)c5cccc(C(F)(F)F)n5)c(C(C)(C)O)cc4n3)CC2)ccc1=O [Compound I-79]
DC50 [1]: > 10 µM
DC50 [2]: > 10 µM

O=C(O)Cn1cc(NC(=O)c2cccc3c2ccn3CCCNC[C@H]2CC[C@H](n3cc(NC(=O)c4cnn5ccc(N6C[C@H]7C[C@@H]6CO7)nc45)c(C(F)F)n3)CC2)ccc1=O [Compound I-77]
DC50 [1]: > 10 µM
DC50 [2]: > 10 µM

O=C(O)Cn1cc(NC(=O)[C@H]2CCCN(c3cncc(C4CCN(C[C@H]5CC[C@H](n6cc(NC(=O)c7cnn8ccc(N9C[C@H]%10C[C@@H]9CO%10)nc78)c(C(F)F)n6)CC5)CC4)c3)C2)ccc1=O [Compound I-12]
DC50 [1]: > 10 µM
DC50 [2]: > 10 µM

CCOC(=O)Cn1cc(NC(=O)[C@H]2CCCN(c3cncc(OCCOCCOCCNC[C@H]4CC[C@H](n5cc6cc(NC(=O)c7cccc(C(F)(F)F)n7)c(OC)cc6n5)CC4)c3)C2)ccc1=O [Compound I-41]
DC50 [1]: > 10 µM
DC50 [2]: > 10 µM

CCOC(=O)Cn1cc(NC(=O)c2cccc(-c3cncc(CCCNC[C@H]4CC[C@H](n5cc(NC(=O)c6cnn7ccc(N8C[C@H]9C[C@@H]8CO9)nc67)c(C(F)F)n5)CC4)c3)c2)ccc1=O [Compound I-91]
DC50 [1]: > 10 µM
DC50 [2]: > 10 µM

O=C(O)Cn1cc(NC(=O)[C@H]2CCCN(c3cncc(OCCOCCOCCOCCOCCNC[C@H]4CC[C@H](n5cc(NC(=O)c6cnn7ccc(N8C[C@H]9C[C@@H]8CO9)nc67)c(C(F)F)n5)CC4)c3)C2)ccc1=O [Compound I-37]
DC50 [1]: 1 to 10 µM
DC50 [2]: > 10 µM

COc1cc(-c2ccc(F)c(CCCCCCCCCNC[C@H]3CC[C@H](n4cc5cc(NC(=O)c6cccc(C(F)(F)F)n6)c(C(C)(C)O)cc5n4)CC3)c2)ccc1C(=O)Nc1ccc(=O)n(CC(=O)O)c1 [Compound I-63]
DC50 [1]: > 10 µM
DC50 [2]: > 10 µM

CCOC(=O)Cn1cc(NC(=O)c2cc(CCCCCCCCCNC[C@H]3CC[C@H](n4cc5cc(NC(=O)c6cccc(C(F)(F)F)n6)c(C(C)(C)O)cc5n4)CC3)cc(-c3cccnc3)c2)ccc1=O [Compound I-72]
DC50 [1]: 1 to 10 µM
DC50 [2]: 1 to 10 µM

CCOC(=O)Cn1cc(NC(=O)C2CCCN(c3cncc(N4CCC(CN(C)C[C@H]5CC[C@H](n6cc7cc(NC(=O)c8cccc(C(F)(F)F)n8)c(OC)cc7n6)CC5)CC4)c3)C2)ccc1=O (some centres unmarked) [Compound I-20]
DC50 [1]: > 10 µM
DC50 [2]: > 10 µM

CCOC(=O)Cn1cc(NC(=O)c2cc(CCCCCCNC[C@H]3CC[C@H](n4cc(NC(=O)c5cnn6ccc(N7C[C@H]8C[C@@H]7CO8)nc56)c(C(F)F)n4)CC3)cc(-c3cccnc3)c2)ccc1=O [Compound I-98]
DC50 [1]: > 10 µM
DC50 [2]: > 10 µM

COC(=O)Cn1cc(NC(=O)c2cccc(-c3cncc4cc(CCCCCCNC[C@H]5CC[C@H](n6cc7cc(NC(=O)c8cccc(C(F)(F)F)n8)c(C(C)(C)O)cc7n6)CC5)ccc34)c2)ccc1=O [Compound I-57]
DC50 [1]: 1 to 10 µM
DC50 [2]: 1 to 10 µM

CCOC(=O)Cn1cc(NC(=O)[C@H]2CCCN(c3cncc(C4CCN(C[C@H]5CC[C@H](n6cc7cc(NC(=O)c8cccc(C(F)(F)F)n8)c(OC)cc7n6)CC5)CC4)c3)C2)ccc1=O [Compound I-17]
DC50 [1]: 1 to 10 µM
DC50 [2]: > 10 µM

O=C(O)Cn1cc(NC(=O)[C@H]2CCCN(c3cncc(OCCOCCOCCNC[C@H]4CC[C@H](n5cc(NC(=O)c6cnn7ccc(N8C[C@H]9C[C@@H]8CO9)nc67)c(C(F)F)n5)CC4)c3)C2)ccc1=O [Compound I-44]
DC50 [1]: > 10 µM
DC50 [2]: > 10 µM

CCOC(=O)Cn1cc(NC(=O)[C@H]2CCCN(c3cncc(OCCOCCOCCNC[C@H]4CC[C@H](n5cc(NC(=O)c6cnn7ccc(N8C[C@H]9C[C@@H]8CO9)nc67)c(C(F)F)n5)CC4)c3)C2)ccc1=O [Compound I-45]
DC50 [1]: 1 to 10 µM
DC50 [2]: > 10 µM

O=C(O)Cn1cc(NC(=O)[C@H]2CCCN(c3cncc(NCCOCCOCCNC[C@H]4CC[C@H](n5cc(NC(=O)c6cnn7ccc(N8C[C@H]9C[C@@H]8CO9)nc67)c(C(F)F)n5)CC4)c3)C2)ccc1=O [Compound I-2]
DC50 [1]: > 10 µM
DC50 [2]: > 10 µM

CCOC(=O)Cn1cc(NC(=O)c2cccc(-c3cncc(CCCCCCCCCNC[C@H]4CC[C@H](n5cc6cc(NC(=O)c7cccc(C(F)(F)F)n7)c(C(C)(C)O)cc6n5)CC4)c3)c2)ccc1=O [Compound I-88, Ethyl 2-[5-[[3-[5-[9-[4-[6-(1-hydroxy-1-methyl-ethyl)—5-[[6-(trifluoromethyl)pyridine-2-carbonyl]amino]indazol-2-yl]cyclohexyl]methylamino]nonyl]-3-pyridyl]benzoyl]amino]-2-oxo-1-pyridyl acetate]
DC50 [1]: 0.1 to 1 µM
DC50 [2]: 1 to 10 µM

COc1cc2nn([C@H]3CC[C@H](CNCCOCCOCCNc4cncc(N5CCC[C@H](C(=O)Nc6ccc(=O)n(CC(=O)O)c6)C5)c4)CC3)cc2cc1NC(=O)c1cccc(C(F)(F)F)n1 [Compound I-1]
DC50 [1]: 1 to 10 µM
DC50 [2]: > 10 µM

O=C(O)Cn1cc(NC(=O)c2cccc(-c3cncc(CCCNC[C@H]4CC[C@H](n5cc(NC(=O)c6cnn7ccc(N8C[C@H]9C[C@@H]8CO9)nc67)c(C(F)F)n5)CC4)c3)c2)ccc1=O [Compound I-87]
DC50 [1]: > 10 µM
DC50 [2]: > 10 µM

O=C(O)Cn1cc(NC(=O)c2cc(CCCCCCNC[C@H]3CC[C@H](n4cc(NC(=O)c5cnn6ccc(N7C[C@H]8C[C@@H]7CO8)nc56)c(C(F)F)n4)CC3)cc(-c3cccnc3)c2)ccc1=O [Compound I-93]
DC50 [1]: > 10 µM
DC50 [2]: > 10 µM

CCOC(=O)Cn1cc(NC(=O)[C@H]2CCCN(c3cncc(C4CCN(C[C@H]5CC[C@H](n6cc(NC(=O)c7cnn8ccc(N9C[C@H]%10C[C@@H]9CO%10)nc78)c(C(F)F)n6)CC5)CC4)c3)C2)ccc1=O [Compound I-18]
DC50 [1]: 1 to 10 µM
DC50 [2]: > 10 µM

COc1cc(-c2ccc(CCCCCCCCCNC[C@H]3CC[C@H](n4cc(NC(=O)c5cnn6ccc(N7C[C@H]8C[C@@H]7CO8)nc56)c(C(F)F)n4)CC3)cc2)ccc1C(=O)Nc1ccc(=O)n(CC(=O)O)c1 [Compound I-62]
DC50 [1]: > 10 µM
DC50 [2]: > 10 µM

O=C(O)Cn1cc(NC(=O)c2cccc(-c3cncc(CCCCCCCCCNC[C@H]4CC[C@H](n5cc(NC(=O)c6cnn7ccc(N8C[C@H]9C[C@@H]8CO9)nc67)c(C(F)F)n5)CC4)c3)c2)ccc1=O [Compound I-85]
DC50 [1]: > 10 µM
DC50 [2]: > 10 µM

Source: patent US20250205342A1, “IRAK DEGRADERS AND USES THEREOF” (Kymera Therapeutics, Inc., priority 2022, published 2025)
